According to patent US20260242340A1, “COMPOUNDS AND METHODS FOR TREATING PROTEIN AGGREGATION DISEASES” (ACELOT, INC., priority 2023, published 2026):

What was measured:
[1] = target: T1, amyloid beta peptide 42 (Aβ42) protein aggregates (Homo sapiens, UniProt P05067); assay: Atomic force microscopy (AFM) of amyloid beta peptide protein aggregation; type: biochemical; details: pre-incubated 10 μM Aβ42, 1:1 compound:Aβ42 ratio, 60 minutes after compound addition
T1 construct: amyloid beta peptide 42 (Aβ42) protein aggregates
T1 sequence (P05067 672-713 limits assumed): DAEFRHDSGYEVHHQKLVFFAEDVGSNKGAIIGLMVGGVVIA
Method: Atomic force microscopy (AFM) was utilized to study the effect of compound 1 on the formation of larger scale amyloid beta peptide 42 (Aβ42) protein aggregates and to determine the effect on pre-formed aggregates and fibrils. Amyloid beta peptide 42 protein aggregates are a major component of the amyloid plaques found in the brains of people with Alzheimer's disease. A 50 μL aliquot of 10 μM Aβ42 solution in 10 mM ammonium acetate was removed and drop-cast onto a mica disc, dried at ambient conditions in a desiccator, and imaged. It took approximately 5 min to prepare the peptide and for the disc to dry, making it the earliest time Aβ42 aggregation can be observed. After 5 min incubation, large globular aggregates formed but few fibrils were observed (FIG. 1A). After 60 min, there was a clear trend toward higher fibril content and larger oligomers. Thus, FIG. 1A represents a control, showing Aβ42 aggregation without the addition of any compound causing Aβ42 aggregation disruption.
Compound 1 was added to the same solution of pre-incubated Aβ42 in a 1:1 compound:Aβ42 ratio. The AFM image shown in FIG. 1B was taken at 60 minutes after compound 1 addition.

[2] = target: toxic alpha-synuclein oligomers (Homo sapiens, UniProt P37840); assay: Neuronal cell toxicity assay (MTT), alpha-synuclein oligomers; type: cell-based; details: 10 μM compound; primary rat neurons; 100% = cells without alpha-synuclein oligomers, 0% = oligomers and DMSO
Method: Primary rat cortical and striatal neurons were prepared from foetuses' brain as previously described (Garcia et al., Diabetes, Obesity & Metabolism 2010, 12, 403-413; Roby et al., Food chemistry 2015, 171, 397-404; Colin et al., Biochimie 2016, 130, 178-187). Briefly, the embryos were extracted, brains were collected and dissected using a binocular magnifier. Embryonic cortical/striatal tissues were dissociated by a combination of enzymatic digestion and mechanical dissociation. The relative number of live cells in cell suspension was evaluated for each cortical and striatal neurons using Thoma cell counting chamber and Axio Scope A1 microscope (Carl Zeiss, Oberkochen, Germany). Dissociated neurons were plated (80,000 cells/well) in 48-well plates pre-coated with 15 μg/mL Poly-ornithine (Sigma), 1 μg/ml Laminin (Sigma). Cells were cultured in Neurobasal medium (Invitrogen, Paris, France) serum free of and supplemented with 2% (v/v) of B-27 Supplement (Invitrogen). […]
To induce neuronal toxicity, neurotoxin (oligomeric forms of Aβ, Tau and alpha-synuclein at 0.1-5 μM) were used. […] Cell viability was evaluated by a 3-(4,5-dimethylthiazol-2-yl)-2,5-diphenyl-2H-tetrazolium bromide (MTT) assay at 24-72 h post neurotoxin challenge. […] After complete solubilization of formazan, absorbance was recorded at 500 nm with a spectrophotometer (SpectraMax® i3x, Molecular Devices, San José, USA).

## CC(=O)Nc1ccc2c(c1)CCN(CCc1cccc(Cl)c1)C2 [Compound 1]
[1]
  Aβ42 protein aggregation (AFM image, FIG. 1B): dramatic reduction
[2]
  % rescue at 10 μM comopund from toxic alpha-synuclein oligomers: 24%
